The values that follow come from BindingDB's records for doi:10.1021/acs.jmedchem.6b01885 (Indiana University School of Medicine, 2017).

For this assay, the target named is Survival motor neuron protein (Homo sapiens, UniProt Q16637). Description: Stabilization of human SMN protein expressed in HEK293 cells expressing SMN2 promoter after 24 hrs by luciferase reporter gene assay.
Survival motor neuron protein, sequence (Q16637 whole entry): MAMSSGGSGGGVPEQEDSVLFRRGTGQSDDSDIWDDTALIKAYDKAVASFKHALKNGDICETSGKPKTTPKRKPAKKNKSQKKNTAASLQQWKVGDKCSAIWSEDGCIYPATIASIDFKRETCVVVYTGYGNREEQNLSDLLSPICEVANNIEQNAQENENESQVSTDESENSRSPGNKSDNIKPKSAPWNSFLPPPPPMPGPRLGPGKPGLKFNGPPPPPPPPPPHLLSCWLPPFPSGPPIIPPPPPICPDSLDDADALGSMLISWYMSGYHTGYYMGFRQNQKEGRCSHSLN

On to `Cc1cccc(NC(=O)c2cc(C(C)C)on2)c1`, for which the EC50 (usually the concentration that produces a half-maximal response) stood at 1800 nM. Regarding `CC(C)c1cc(C(=O)Nc2cccnc2)no1` [MLS000087329], the EC50 amounted to 9900 nM. The value for `CC(C)c1cc(C(=O)Nc2cccc(Cl)c2)no1` [MLS000087323] was 860 nM; that for `CC(C)Cc1cc(C(=O)Nc2ccc(F)c(Cl)c2)no1` was 1500 nM.

Turning to `CC(C)c1cc(C(=O)Nc2cccc(F)c2)no1`, the EC50 worked out at 340 nM.

Compound `CC(C)(C)c1cc(C(=O)Nc2ccc(F)c(Cl)c2)no1` showed a concentration for a half-maximal effect (EC50) of 1930 nM. As for `O=C(Nc1ncc(C2CCC2)s1)c1ccc(F)c(Cl)c1`, the EC50 was 500 nM. Consider `CC(C)c1cc(C(=O)Nc2ccccc2F)no1`, for which the EC50 amounted to 260 nM. On to `COc1ccccc1NC(=O)c1cc(C(C)C)on1`, for which it took 7300 nM to reach a half-maximal effect (EC50). On to `CC(C)c1cc(C(=O)Nc2nc3ccccc3s2)no1`, for which the EC50 is 170 nM.

In turn, `Cc1ccccc1NC(=O)c1cc(C(C)C)on1` showed an EC50 of 5400 nM. `CC(C)c1cc(C(=O)Nc2nc3ccccc3[nH]2)no1` registered an EC50 of 260 nM.

In turn, `CC(C)c1cc(C(=S)Nc2ccc(F)c(Cl)c2)no1` had an EC50 of 13900 nM. The value for `CC(C)c1cc(C(=O)Nc2ccc(Cl)cc2)no1` was 2800 nM. The figure for `CC(C)c1cc(NC(=O)c2ccc(F)c(Cl)c2)no1` is 9900 nM. The value for `CCc1cc(C(=O)Nc2ccc(F)c(Cl)c2)no1` was 8800 nM; that for `CC(C)c1cc(NC(=O)c2ccc(F)c(Cl)c2)on1` was 5500 nM. Turning to `CC(C)c1nc(NC(=O)c2ccc(F)c(Cl)c2)cs1`, the response was half-maximal at 1600 nM (EC50).

`COc1cccc(NC(=O)c2cc(C(C)C)on2)c1` registered an EC50 of 3600 nM. The value for `Cc1c(C(=O)Nc2ccc(F)c(Cl)c2)noc1C(C)C` was 500 nM; that for `CC(C)c1cc(C(=O)Nc2ccccc2)no1` was 280 nM. The figure for `CC(C)c1cc(C(=O)Nc2nccs2)no1` is 780 nM; for `CC(C)c1cc(C(=O)Nc2ccc(F)cc2)no1` it is 1800 nM; for `CC(C)c1cc(C(=O)Nc2nc3ccccc3n2C)no1` it is 2600 nM. Consider `Cc1ccc(NC(=O)c2cc(C(C)C)on2)cc1`, for which a half-maximal effect (EC50) was put at 1400 nM. The value for `CC(C)c1cc(C(=O)Nc2ccccc2Cl)no1` was 6200 nM; that for `O=C(Nc1ccc(F)c(Cl)c1)c1cc(Cc2ccccc2)on1` was 3560 nM; that for `CC(C)c1cc(C(=O)Nc2ccccn2)no1` was 360 nM. The value for `CC(C)c1cc(CNc2ccc(F)c(Cl)c2)no1` was 11200 nM; that for `CC(C)c1cc(C(=O)N2CCc3ccccc32)no1` was 720 nM.
